Laboratory results taken from paper PMC6765138 (Nucleic Acids Research, 2019).

Key:
MtPrpR81–486 = molecular target: T1, MtPrpR81–486 (Mycobacterium tuberculosis, UniProt O06581)
T1 construct: gene prpR

SEC = molecular target: the molecule itself; assay: SEC

Molecule	X-ray crystal structure of co-purified ligand; LC-HRMS of extracted ligand (MtPrpR81–486)	stoichiometry N (SEC)
CC(C)(COP(=O)(O)OP(=O)(O)OC[C@H]1O[C@@H](n2cnc3c(N)ncnc32)[C@H](O)[C@@H]1OP(=O)(O)O)[C@@H](O)C(=O)NCCC(=O)NCCS [Coenzyme A]	the predominant CoA was built into all protein chains	–
MtPrpR_(81–486) (Mycobacterium tuberculosis PrpR, Rv1129c, residues 81-486, N-terminal His6-tag) (domain or fragment, also called native PrpR_(81–486); wild-type MtPrpR_(81–486); not shown: His6, N-terminal, kept) DARLVADLSDVFTDIGVEHAVSGAQIEEFVARMPEVGHSLVAVHRRLRAATEELEGYRSRATAETELPPARPMPFEEVRDFFYDRNNYIHDLDMAAERMFTESGMRTGGLDIQLAELMRDRFGISVVIDDNLPDTAKRRYHPDTKVLRVAHWLMPGQRAFQIATQLALVGQSDLISSIVATDDQLSTEARGVARIGLANYFAGAFLLPYREFHRAAEQLRYDIDLLGRRFGVGFETVCHRLSTLQRPRQRGIPFIFVRTDKAGNISKRQSATAFHFSRVGGSCPLWVVHDAFAQPERIVRQVAQMPDGRSYFWVAKTTAADGLGYLGPHKNFAVGLGCDLAHAHKLVYSTGVVLDDPSTEVPIGAGCKICNRTSCAQRAFPYLGGRVAVDENAGSSLPYSSTEQSV	–	4
